pIC50: −log10 of the molar value.
Legend:
human IGF1R (hIGF1R) = target: T1, human IGF1R (hIGF1R) (Homo sapiens, UniProt P08069); experiment: TR-FRET kinase assay of purified hIGF1R; type: biochemical; conditions: activated hIGF1R 0.5 nM, 10 μM ATP, values given as pIC50 category, read-out: IGF-1R pIC50 (converted)
T1 construct: containing amino acid residues 957-1367 of human IGF1R; made in house; host or cells: Sf9 cells (baculovirus)

ALK = ALK (Homo sapiens, UniProt Q9UM73); experiment: ALK enzyme assay (HTRF); type: biochemical; conditions: 0.25 nM ALK, 15.0 μM ATP, values given as pIC50 category
In short: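 Isolated ALK phosphorylates a biotinylated tyrosine peptide, 120 min at 20° C; anti-phosphotyrosine Eu-cryptate/streptavidin-XL665 HTRF read after 60 min with EDTA-containing detection mix.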

Colo205 = experiment: Inhibition of cell proliferation (CellTiter-Glo or InCell analyzer), Colo205; type: cell-based; conditions: Homo sapiens, COLO 205, 72 h / 3 days, values given as IC50 category
Method: (§1) Cell proliferation was measured by either CellTiter-Glo (measures cellular ATP level as a surrogate for total cell number) or by InCell analyzer (counts number of nuclei as a measure of cell number).
(§2) For CellTiter-Glo assay, exponentially growing cell lines of different tumor origins, cultured in appropriate media containing 10% fetal bovine serum at 37° C. in a 5% CO2 incubator, were plated at low density (less than 2000cells/well) in 96-well plates. Twenty four hours post-plating, cells were treated with different concentrations of test compounds ranging from 30 uM to 1.5 nM. Several wells were left untreated as a control. Seventy two hours post-treatment, cell numbers were determined using 50-100 ul per well of CellTiter-Glo (Promega #G7573). Plates were incubated at 37° C. for 30 minutes and the chemiluminescent signal was read on the Victor V or Envison 2100 reader.
(§3) For InCell Analyser assay, various cell lines of different tumor origins were grown to 70-80% confluency in appropriate culture media containing 10% fetal bovine serum at 37° C. in a 5% CO2 incubator. On day −1, cells were seeded at 2 densities in 384-well plates and incubated at 37° C. overnight. Stock compound plates were prepared in advance which contained dimethyl sulfoxide (DMSO) alone and a 9-point half-log decreasing dose range of the compound in DMSO. The compound plates were stored at −80° C. and each plate was only thawed once and used. On day 0, the main assay plates received compound or DMSO via a sonic delivery system (ECHO). The highest final concentration of compound of the dose range in the culture plates was 10 uM. These plates were cultured at 37° C. for 3 days. […] On day 3, the compound treated plates were stained and fixed to measure proliferation, apoptosis, and mitotic index using an InCelL1000 analyser. A nuclear stain was used to identify cells in the wells. By counting the number of nuclei, the proliferation index of compound treated groups were calculated as a percentage relative to the DMSO control, which was set to 100%. The IC50 values were calculated using model 205 in ExcelFit.
(§4) IC50 (nM) values for compounds of select examples were categorized by relative inhibition of cell proliferation.

[1] = target: T2, NIH-3T3 cells overexpressing human IGF-1R (Homo sapiens, UniProt P08069); experiment: IGF-1R cellular autophosphorylation (DELFIA); type: cell-based
T2 construct: expressed in transfected cells; host or cells: NIH-3T3 (mouse fibroblasts)
In short: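 Receptor autophosphorylation measured by DELFIA, capturing IGF-1R or IRβ and detecting with europium anti-pTyr, reported as percent of IGF-1- or insulin-stimulated signal. Compounds (30 uM to 1.5 nM) added 2 h before ligand, then 15 min stimulation (IGF-1 30 ng/ml or insulin 3 ug/ml).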

[2] = target: T3, NIH-3T3 cells overexpressing human IR (Homo sapiens, UniProt P06213); experiment: IR cellular autophosphorylation (DELFIA); type: cell-based; conditions: 2 h compound, insulin 3 ug/ml for 15 minutes, IC50 category
T3 construct: expressed in transfected cells; host or cells: NIH-3T3 (mouse fibroblasts)
Method: NIH-3T3 cells overexpressing human IGF-1R or IR were plated in 96-well plates (10,000 cells/well) in culture media containing 10% fetal bovine serum and incubated at 37° C. in a 5% CO2 incubator. Twenty four hours post-plating, cells were treated with different concentrations of test compounds ranging from 30 uM to 1.5 nM. Two hours after compound addition, cells were stimulated with either human IGF-1 (30 ng/ml) or insulin (3 ug/ml) for 15 minutes. Cell lysates are analyzed for phosphorylated receptors using dissociation enhanced lanthanide fluor-immuno assay (DELFIA) with anti-IGF-1R (MAB391, R&D Systems, Minneapolis, Minn.) or anti-IRβ (sc-711, Santa Cruz Biotechnology, Santa Cruz, Calif.) capture antibody and europium-labeled anti-pTyr antibody (Eu-N1 PT66, Perkin Elmer, Waltham, Mass.) for detection. The fluorescence signal for cells treated with compounds was expressed as percent relative to 100% stimulation (IGF-1 or insulin stimulated signal).

human IR (hIR) = target: T4, human IR (hIR) (Homo sapiens, UniProt P06213); experiment: TR-FRET kinase assay of purified hIR; type: biochemical; conditions: activated hIR 0.5 nM, 10 μM ATP, values given as pIC50 category
T4 construct: containing amino acid residues 979-1382 of human IR; made in house; host or cells: Sf9 cells (baculovirus), same process as hIGF1R

NCI-H929 = experiment: Inhibition of cell proliferation (CellTiter-Glo or InCell analyzer), NCI-H929; type: cell-based; conditions: Homo sapiens, 72 h / 3 days, values given as IC50 category
Method: as §1, §2, §3, §4

T3 sequence (P06213 28-1382): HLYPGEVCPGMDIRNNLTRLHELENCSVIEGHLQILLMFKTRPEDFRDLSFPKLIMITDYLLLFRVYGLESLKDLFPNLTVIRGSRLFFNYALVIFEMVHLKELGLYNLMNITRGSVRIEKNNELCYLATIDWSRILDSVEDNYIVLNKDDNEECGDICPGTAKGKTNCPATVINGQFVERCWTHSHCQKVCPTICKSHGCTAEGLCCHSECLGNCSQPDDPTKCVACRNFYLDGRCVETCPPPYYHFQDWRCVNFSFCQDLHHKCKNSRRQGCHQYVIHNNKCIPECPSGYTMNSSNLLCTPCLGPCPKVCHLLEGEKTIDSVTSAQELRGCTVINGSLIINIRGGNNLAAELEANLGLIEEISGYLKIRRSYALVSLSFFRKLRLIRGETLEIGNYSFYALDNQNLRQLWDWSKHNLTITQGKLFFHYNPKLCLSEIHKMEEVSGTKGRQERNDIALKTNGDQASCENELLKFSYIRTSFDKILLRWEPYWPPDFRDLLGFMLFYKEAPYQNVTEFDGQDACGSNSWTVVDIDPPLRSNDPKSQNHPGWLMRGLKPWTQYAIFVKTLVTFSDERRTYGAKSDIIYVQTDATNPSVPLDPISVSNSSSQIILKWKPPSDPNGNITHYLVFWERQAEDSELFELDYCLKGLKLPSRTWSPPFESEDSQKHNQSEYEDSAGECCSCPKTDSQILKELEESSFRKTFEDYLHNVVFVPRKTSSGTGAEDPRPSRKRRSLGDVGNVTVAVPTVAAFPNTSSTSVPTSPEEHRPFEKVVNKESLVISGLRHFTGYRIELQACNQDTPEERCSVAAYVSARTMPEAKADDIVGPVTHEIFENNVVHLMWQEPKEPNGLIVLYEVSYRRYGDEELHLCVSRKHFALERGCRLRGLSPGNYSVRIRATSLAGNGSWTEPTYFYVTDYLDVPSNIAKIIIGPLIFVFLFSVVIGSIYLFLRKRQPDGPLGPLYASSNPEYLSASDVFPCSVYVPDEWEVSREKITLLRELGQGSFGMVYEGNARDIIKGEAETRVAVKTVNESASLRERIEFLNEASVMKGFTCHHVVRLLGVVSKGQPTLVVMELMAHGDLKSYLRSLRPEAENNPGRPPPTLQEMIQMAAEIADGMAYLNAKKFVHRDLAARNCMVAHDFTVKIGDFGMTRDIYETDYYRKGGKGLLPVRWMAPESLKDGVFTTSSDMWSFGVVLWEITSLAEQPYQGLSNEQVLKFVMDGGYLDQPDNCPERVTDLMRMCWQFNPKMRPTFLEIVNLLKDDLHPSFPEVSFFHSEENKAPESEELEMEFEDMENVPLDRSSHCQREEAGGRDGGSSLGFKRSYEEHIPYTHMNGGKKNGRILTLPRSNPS
T1 sequence (P08069 957-1367): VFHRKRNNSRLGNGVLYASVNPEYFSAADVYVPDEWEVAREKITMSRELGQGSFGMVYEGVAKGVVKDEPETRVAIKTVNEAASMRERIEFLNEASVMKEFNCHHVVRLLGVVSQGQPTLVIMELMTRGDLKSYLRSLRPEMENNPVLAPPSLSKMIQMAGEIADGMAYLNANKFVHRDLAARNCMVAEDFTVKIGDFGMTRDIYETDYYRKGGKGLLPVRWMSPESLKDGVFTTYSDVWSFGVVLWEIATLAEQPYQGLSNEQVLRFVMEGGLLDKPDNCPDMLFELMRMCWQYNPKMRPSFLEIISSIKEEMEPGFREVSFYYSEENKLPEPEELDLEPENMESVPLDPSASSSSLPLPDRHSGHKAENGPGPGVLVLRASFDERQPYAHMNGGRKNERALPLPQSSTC
T2 sequence (P08069 31-1367): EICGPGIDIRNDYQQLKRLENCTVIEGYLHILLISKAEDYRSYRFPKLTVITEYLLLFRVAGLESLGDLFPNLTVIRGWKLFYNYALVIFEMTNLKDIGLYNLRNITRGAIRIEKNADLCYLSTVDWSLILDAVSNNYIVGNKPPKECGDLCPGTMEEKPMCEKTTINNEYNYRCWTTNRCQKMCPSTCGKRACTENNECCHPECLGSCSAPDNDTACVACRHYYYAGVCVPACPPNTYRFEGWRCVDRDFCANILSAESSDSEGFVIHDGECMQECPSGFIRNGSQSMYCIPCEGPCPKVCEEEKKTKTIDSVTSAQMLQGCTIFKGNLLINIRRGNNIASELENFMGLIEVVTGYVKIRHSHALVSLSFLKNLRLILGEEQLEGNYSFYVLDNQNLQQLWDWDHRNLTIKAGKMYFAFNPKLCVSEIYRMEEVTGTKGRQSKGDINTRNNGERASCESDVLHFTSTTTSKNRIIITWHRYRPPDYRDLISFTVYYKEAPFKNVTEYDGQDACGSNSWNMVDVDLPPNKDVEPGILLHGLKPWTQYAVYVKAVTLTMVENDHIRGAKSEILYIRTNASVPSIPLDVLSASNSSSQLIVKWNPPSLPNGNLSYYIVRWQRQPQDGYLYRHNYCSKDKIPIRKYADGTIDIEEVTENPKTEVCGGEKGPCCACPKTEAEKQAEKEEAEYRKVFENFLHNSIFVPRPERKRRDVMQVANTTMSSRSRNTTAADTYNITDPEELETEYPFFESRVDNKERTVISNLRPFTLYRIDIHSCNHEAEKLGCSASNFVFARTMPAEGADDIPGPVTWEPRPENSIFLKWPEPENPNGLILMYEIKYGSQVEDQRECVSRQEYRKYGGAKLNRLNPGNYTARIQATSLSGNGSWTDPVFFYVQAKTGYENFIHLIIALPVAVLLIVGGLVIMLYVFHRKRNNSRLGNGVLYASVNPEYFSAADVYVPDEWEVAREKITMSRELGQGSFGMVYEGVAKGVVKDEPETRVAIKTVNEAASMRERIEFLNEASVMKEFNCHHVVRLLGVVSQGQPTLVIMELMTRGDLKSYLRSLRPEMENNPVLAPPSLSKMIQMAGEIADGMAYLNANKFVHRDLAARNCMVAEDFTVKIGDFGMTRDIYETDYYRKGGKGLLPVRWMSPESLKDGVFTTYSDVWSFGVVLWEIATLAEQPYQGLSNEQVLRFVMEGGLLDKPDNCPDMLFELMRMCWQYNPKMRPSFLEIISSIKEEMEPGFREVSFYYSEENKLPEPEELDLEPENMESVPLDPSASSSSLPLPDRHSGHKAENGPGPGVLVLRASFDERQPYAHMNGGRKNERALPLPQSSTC
T4 sequence (P06213 979-1382): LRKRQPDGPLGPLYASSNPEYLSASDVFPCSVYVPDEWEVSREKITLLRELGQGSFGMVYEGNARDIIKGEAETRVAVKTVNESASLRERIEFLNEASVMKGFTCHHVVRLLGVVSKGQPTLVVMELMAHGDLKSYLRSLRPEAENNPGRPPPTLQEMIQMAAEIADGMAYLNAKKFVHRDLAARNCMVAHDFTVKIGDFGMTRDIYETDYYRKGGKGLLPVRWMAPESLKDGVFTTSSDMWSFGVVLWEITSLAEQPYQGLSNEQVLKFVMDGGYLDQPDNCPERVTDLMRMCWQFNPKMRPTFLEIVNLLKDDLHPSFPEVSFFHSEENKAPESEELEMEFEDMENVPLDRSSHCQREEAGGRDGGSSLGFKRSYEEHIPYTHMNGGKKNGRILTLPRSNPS
ALK, sequence (Q9UM73 19-1620): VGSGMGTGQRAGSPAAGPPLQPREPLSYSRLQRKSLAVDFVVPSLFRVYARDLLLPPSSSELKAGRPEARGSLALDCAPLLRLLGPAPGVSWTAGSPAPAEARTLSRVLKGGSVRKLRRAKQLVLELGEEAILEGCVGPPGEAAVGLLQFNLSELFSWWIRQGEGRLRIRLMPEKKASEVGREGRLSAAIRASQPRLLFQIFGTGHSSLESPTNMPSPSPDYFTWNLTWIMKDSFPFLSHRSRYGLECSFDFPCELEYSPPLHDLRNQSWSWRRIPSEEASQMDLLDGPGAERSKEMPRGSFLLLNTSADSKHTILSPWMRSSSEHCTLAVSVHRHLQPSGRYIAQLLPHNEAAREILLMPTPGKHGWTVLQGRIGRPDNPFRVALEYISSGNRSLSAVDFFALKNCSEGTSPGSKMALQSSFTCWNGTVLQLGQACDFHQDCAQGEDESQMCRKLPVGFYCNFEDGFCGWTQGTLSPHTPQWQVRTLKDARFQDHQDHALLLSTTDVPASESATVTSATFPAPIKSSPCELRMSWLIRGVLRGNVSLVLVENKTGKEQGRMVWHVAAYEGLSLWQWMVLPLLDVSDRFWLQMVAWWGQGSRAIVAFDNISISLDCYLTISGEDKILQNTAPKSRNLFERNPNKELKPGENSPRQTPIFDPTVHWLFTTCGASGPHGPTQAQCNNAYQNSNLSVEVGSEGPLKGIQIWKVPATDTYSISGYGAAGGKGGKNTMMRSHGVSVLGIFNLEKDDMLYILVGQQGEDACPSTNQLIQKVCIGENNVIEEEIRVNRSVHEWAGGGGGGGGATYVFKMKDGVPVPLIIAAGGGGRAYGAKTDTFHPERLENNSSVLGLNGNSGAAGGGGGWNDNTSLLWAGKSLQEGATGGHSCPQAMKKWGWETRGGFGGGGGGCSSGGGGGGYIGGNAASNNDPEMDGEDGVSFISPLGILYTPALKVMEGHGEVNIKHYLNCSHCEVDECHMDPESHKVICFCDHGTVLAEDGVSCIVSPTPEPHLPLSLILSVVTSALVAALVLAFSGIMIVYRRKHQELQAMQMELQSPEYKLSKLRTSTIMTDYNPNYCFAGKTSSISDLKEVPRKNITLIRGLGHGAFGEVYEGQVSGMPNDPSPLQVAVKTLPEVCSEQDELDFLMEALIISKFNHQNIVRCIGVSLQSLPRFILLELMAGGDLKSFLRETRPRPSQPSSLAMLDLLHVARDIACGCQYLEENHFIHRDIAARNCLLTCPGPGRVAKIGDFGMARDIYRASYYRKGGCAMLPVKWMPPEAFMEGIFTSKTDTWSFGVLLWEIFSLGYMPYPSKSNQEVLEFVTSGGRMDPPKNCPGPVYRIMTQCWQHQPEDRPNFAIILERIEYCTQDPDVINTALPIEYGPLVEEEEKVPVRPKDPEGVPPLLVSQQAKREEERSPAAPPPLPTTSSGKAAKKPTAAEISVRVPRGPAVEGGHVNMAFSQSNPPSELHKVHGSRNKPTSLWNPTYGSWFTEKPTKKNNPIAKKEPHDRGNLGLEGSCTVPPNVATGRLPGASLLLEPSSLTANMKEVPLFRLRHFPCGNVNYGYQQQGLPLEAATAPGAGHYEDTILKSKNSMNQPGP

Row | Compound | IC50 (human IGF1R (hIGF1R)) | pIC50 (ALK) | pIC50 (Colo205) | pIC50 [1] | pIC50 [2] | pIC50 (human IR (hIR)) | pIC50 (NCI-H929)
1 | CNC(=O)c1cc(F)ccc1Nc1nc(Nc2ccc(N3CCN(C(C)C)CC3)cc2OC)nc2[nH]ccc12 [Example 65, 5-fluoro-N-methyl-2-[(2-{[4-[4-(1-methylethyl)-1-piperazinyl]-2-(methyloxy)phenyl]amino}-1H-pyrrolo[2,3-d]pyrimidin-4-yl)amino]benzamide] | 1.26 to 3.98 nM | 8.40 to 8.90 | 6.00 to 6.60 | 6.30 to 7.00 | 6.30 to 7.00 |  | 
2 | COc1cc(N2CCN(C(C)C)CC2)ccc1Nc1nc(Nc2ccc(F)cc2C(=O)NCCO)c2cc[nH]c2n1 [Example 66, 5-fluoro-N-(2-hydroxyethyl)-2-[(2-{[4-[4-(1-methylethyl)-1-piperazinyl]-2-(methyloxy)phenyl]amino}-1H-pyrrolo[2,3-d]pyrimidin-4-yl)amino]benzamide] | 5.01 to 200 nM | 8.40 to 8.90 | > 6.60 | < 6.30 | < 6.30 |  | 
3 | CCc1cc(N2CCN(C(C)C)CC2)ccc1Nc1nc(Nc2cc(F)ccc2C(N)=O)c2cc[nH]c2n1 [Example 69, 2-{[2-({2-ethyl-4-[4-(1-methylethyl)-1-piperazinyl]phenyl}amino)-1H-pyrrolo[2,3-d]pyrimidin-4-yl]amino}-4-fluorobenzamide] | 1.26 to 3.98 nM |  | 6.00 to 6.60 | 6.30 to 7.00 | 6.30 to 7.00 | 8.40 to 8.90 | 
4 | CNC(=O)c1c(F)cccc1Nc1nc(Nc2cc3c(cc2OC)C(C)(C)CCN3C(=O)CN(C)C)nc2[nH]ccc12 [Example 226, 2-[(2-{[1-(N,N-dimethylglycyl)-4,4-dimethyl-6-(methyloxy)-1,2,3,4-tetrahydro-7-quinolinyl]amino}-1H-pyrrolo[2,3-d]pyrimidin-4-yl)amino]-6-fluoro-N-methylbenzamide] | 0.251 to 1 nM |  | 6.00 to 6.60 |  |  | 9.00 to 9.60 | > 6.60
5 | CNC(=O)c1c(F)cccc1Nc1nc(Nc2cc3c(cc2C)CCCN3C(=O)CN(C)C)nc2[nH]ccc12 [Example 247, 2-[(2-{[1-(N,N-dimethylglycyl)-6-methyl-1,2,3,4-tetrahydro-7-quinolinyl]amino}-1H-pyrrolo[2,3-d]pyrimidin-4-yl)amino]-6-fluoro-N-methylbenzamide] | 5.01 to 200 nM |  | < 6.00 |  |  |  | 6.00 to 6.60
6 | COc1cc(C)c(N(C)C(=O)CN(C)C)cc1Nc1nc(Nc2cccc(F)c2C(N)=O)c2cc[nH]c2n1 [Example 255, 2-[(2-{[5-[(N,N-dimethylglycyl)(methyl)amino]-4-methyl-2-(methyloxy)phenyl]amino}-1H-pyrrolo[2,3-d]pyrimidin-4-yl)amino]-6-fluorobenzamide] | 5.01 to 200 nM | 6.70 to 8.30 |  | < 6.30 | < 6.30 | 6.80 to 8.30 | 
7 | CNC(=O)c1c(F)cccc1Nc1nc(Nc2cc(NC(=O)CN(C)C)c(C)cc2OC)nc2[nH]ccc12 [Example 256, 2-[(2-{[5-[(N,N-dimethylglycyl)amino]-4-methyl-2-(methyloxy)phenyl]amino}-1H-pyrrolo[2,3-d]pyrimidin-4-yl)amino]-6-fluoro-N-methylbenzamide] | 0.251 to 1 nM | 9.00 to 9.60 |  | > 7.00 | 6.30 to 7.00 | 9.00 to 9.60 | 

Continued, values first:

Row | IC50 (human IGF1R (hIGF1R)) | pIC50 (ALK) | pIC50 (Colo205) | pIC50 [1] | pIC50 [2] | pIC50 (human IR (hIR)) | pIC50 (NCI-H929) | Compound
8 | 1.26 to 3.98 nM |  | 6.00 to 6.60 | > 7.00 | > 7.00 | 8.40 to 8.90 |  | COc1cc(N2CCOC[C@@H]2C)ccc1Nc1nc(Nc2cc(F)cc(F)c2C(N)=O)c2cc[nH]c2n1 [Example 90, 2,4-difluoro-6-[(2-{[4-[(3S)-3-methyl-4-morpholinyl]-2-(methyloxy)phenyl]amino}-1H-pyrrolo[2,3-d]pyrimidin-4-yl)amino]benzamide]
9 |  |  | 6.00 to 6.60 |  |  |  | > 6.60 | CNC(=O)c1c(F)cccc1Nc1nc(Nc2cc3c(cc2OC)CCN3C(=O)CN(C)C)nc2[nH]ccc12 [Example 116, 2-[(2-{[1-(N,N-dimethylglycyl)-5-(methyloxy)-2,3-dihydro-1H-indol-6-yl]amino}-1H-pyrrolo[2,3-d]pyrimidin-4-yl)amino]-6-fluoro-N-methylbenzamide]
10 | 1.26 to 3.98 nM | 6.70 to 8.30 | 6.00 to 6.60 |  |  | 8.40 to 8.90 | 6.00 to 6.60 | COc1cc2c(cc1Nc1nc(Nc3cc(F)cc(F)c3C(N)=O)c3cc[nH]c3n1)N(C(=O)[C@@H]1CCCN1C)CC2 [Example 148, 2,4-difluoro-6-[(2-{[5-(methyloxy)-1-(1-methyl-L-prolyl)-2,3-dihydro-1H-indol-6-yl]amino}-1H-pyrrolo[2,3-d]pyrimidin-4-yl)amino]benzamide]
11 | 1.26 to 3.98 nM | 8.40 to 8.90 | > 6.60 |  |  | 8.40 to 8.90 | > 6.60 | COc1cc2c(cc1Nc1nc(Nc3ccc(F)c(F)c3C(N)=O)c3cc[nH]c3n1)N(C(=O)CN(C)C)CC2 [Example 159, 6-[(2-{[1-(N,N-dimethylglycyl)-5-(methyloxy)-2,3-dihydro-1H-indol-6-yl]amino}-1H-pyrrolo[2,3-d]pyrimidin-4-yl)amino]-2,3-difluorobenzamide]
12 | 1.26 to 3.98 nM | 8.40 to 8.90 | 6.00 to 6.60 |  |  | 8.40 to 8.90 | > 6.60 | CNC(=O)c1c(Nc2nc(Nc3cc4c(cc3OC)CCN4C(=O)CN(C)C)nc3[nH]ccc23)ccc(F)c1F [Example 160, 6-[(2-{[1-(N,N-dimethylglycyl)-5-(methyloxy)-2,3-dihydro-1H-indol-6-yl]amino}-1H-pyrrolo[2,3-d]pyrimidin-4-yl)amino]-2,3-difluoro-N-methylbenzamide]
13 |  | 9.00 to 9.60 | > 6.60 |  |  |  | > 6.60 | COc1cc2c(cc1Nc1nc(Nc3cc(Cl)cc(F)c3C(N)=O)c3cc[nH]c3n1)N(C(=O)CN(C)C)CCC2 [Example 171, 4-chloro-2-[(2-{[1-(N,N-dimethylglycyl)-6-(methyloxy)-1,2,3,4-tetrahydro-7-quinolinyl]amino}-1H-pyrrolo[2,3-d]pyrimidin-4-yl)amino]-6-fluorobenzamide]
14 |  | 8.40 to 8.90 | 6.00 to 6.60 |  |  |  | > 6.60 | CNC(=O)c1c(F)cc(Cl)cc1Nc1nc(Nc2cc3c(cc2OC)CCCN3C(=O)CN(C)C)nc2[nH]ccc12 [Example 172, 4-chloro-2-[(2-{[1-(N,N-dimethylglycyl)-6-(methyloxy)-1,2,3,4-tetrahydro-7-quinolinyl]amino}-1H-pyrrolo[2,3-d]pyrimidin-4-yl)amino]-6-fluoro-N-methylbenzamide]
15 | 0.251 to 1 nM | 9.00 to 9.60 |  | > 7.00 | > 7.00 | 9.00 to 9.60 |  | COc1cc(C)c(NC(=O)CN(C)C)cc1Nc1nc(Nc2cccc(F)c2C(N)=O)c2cc[nH]c2n1 [Example 257, 2-[(2-{[5-[(N,N-dimethylglycyl)amino]-4-methyl-2-(methyloxy)phenyl]amino}-1H-pyrrolo[2,3-d]pyrimidin-4-yl)amino]-6-fluorobenzamide]

Source: patent US7981903B2, “2-[2-{phenylamino}-1H-pyrrolo[2,3-D]pyrimidin-4-yl)amino] benzamide derivatives as IGF-1R inhibitors for the treatment of cancer” (GlaxoSmithKline LLC, priority 2007, dated 2011)
